33 compounds from ChEMBL document CHEMBL1131978, “3D QSAR studies on new oxazolidinone antibacterial agents by comparative molecular field analysis” (Bioorg Med Chem Lett, 1999) can be followed below.

A word on the MIC: it is the lowest concentration that inhibits growth of the organism. Read a low MIC as greater potency.

The structures appear in SMILES notation. In brackets after ≈: the same amount, converted by molar mass.

In this test the test system is Staphylococcus aureus. The test can be described thus: In vitro antibacterial activity against the methicillin-resistant Staphylococcus aureus 88. The format is functional.
As for `CC(=O)NC[C@H]1CN(c2ccc(N3CCN(C(=O)CO)CC3)c(F)c2)C(=O)O1` [EPEREZOLID], the “Log 1/MIC” value is reported as -0.19 and the MIC was 1.56 µg/mL (≈ 3.96 µM).

Regarding `CC(=O)NC[C@H]1CN(c2ccc(N3CCN(C(=O)c4cc(COC(=O)N(C)C)no4)CC3)c(F)c2)C(=O)O1`, the “Log 1/MIC” value was -0.49 and the lowest concentration to inhibit growth (MIC) was 3.12 µg/mL (≈ 5.86 µM).

`CC(=O)NC[C@H]1CN(c2ccc(N3CCN(C(=O)c4cccs4)CC3)c(F)c2)C(=O)O1`: the “Log 1/MIC” value is listed as -0.19 and the MIC came out at 1.56 µg/mL (≈ 3.49 µM).

In the case of `CC(=O)NC[C@H]1CN(c2ccc(N3CCN(C(=O)c4cc(OCCF)no4)CC3)c(F)c2)C(=O)O1`, the “Log 1/MIC” value is -0.19 and the MIC was found to be 1.56 µg/mL (≈ 3.16 µM).

Turning to `CC(=O)NC[C@H]1CN(c2ccc(N3CCN(C(=O)c4cc(C)no4)CC3)c(F)c2)C(=O)O1`, the “Log 1/MIC” value is reported as -0.19 and inhibition of growth (MIC) required 1.56 µg/mL (≈ 3.5 µM).

Take `CCCCCCCCCCS(=O)(=O)N[C@H](CCCCCC)COP(=O)(O)OCCO`: the “Log 1/MIC” value is reported as -0.19 and the MIC came out at 1.56 µg/mL (≈ 3.29 µM).

Regarding `COc1ccc(-c2cc(CN3CCN(c4ccc(N5C[C@H](CNC(C)=O)OC5=O)cc4F)CC3)on2)cc1OC`, the “Log 1/MIC” value is reported as -0.49 and the MIC turned out to be 3.12 µg/mL (≈ 5.64 µM).

In the case of `CC(=O)NC[C@H]1CN(c2ccc(N3CCN(C(=O)c4cc(Cl)no4)CC3)c(F)c2)C(=O)O1`, the “Log 1/MIC” value is 0.11 and the MIC amounted to 0.78 µg/mL (≈ 1.67 µM).

As for `CC(=O)NC[C@H]1CN(c2ccc(N3CCN(C(=O)c4cc(Br)no4)CC3)c(F)c2)C(=O)O1`, the “Log 1/MIC” value is recorded as 0.11 and the MIC was 0.78 µg/mL (≈ 1.53 µM).

For `CC(=O)NC[C@H]1CN(c2ccc(N3CCN(C(=O)c4cc(-c5cccs5)no4)CC3)c(F)c2)C(=O)O1`, the “Log 1/MIC” value was -0.11 and the MIC came out at 0.78 µg/mL (≈ 1.52 µM).

For the compound `CC(=O)NC[C@H]1CN(c2ccc(N3CCN(C(=O)c4cc(-c5cnsn5)no4)CC3)c(F)c2)C(=O)O1`, the “Log 1/MIC” value is given as -0.19 and the lowest concentration to inhibit growth (MIC) was 1.56 µg/mL (≈ 3.03 µM).

Regarding `COc1cc(C(=O)N2CCN(c3ccc(N4C[C@H](CNC(C)=O)OC4=O)cc3F)CC2)on1`, the “Log 1/MIC” value is on record as -0.19 and the MIC turned out to be 1.56 µg/mL (≈ 3.38 µM).

With `CC(=O)NC[C@H]1CN(c2ccc(N3CCN(C(=O)c4cc(COC(N)=O)no4)CC3)c(F)c2)C(=O)O1`, the “Log 1/MIC” value is reported as -0.19 and the MIC came to 1.56 µg/mL (≈ 3.09 µM).

`CC(=O)NC[C@H]1CN(c2ccc(N3CCOCC3)c(F)c2)C(=O)O1` [LINEZOLID]: the MIC worked out at 1.56 µg/mL (≈ 4.62 µM).

On to `COc1cc(CN2CCN(c3ccc(N4C[C@H](CNC(C)=O)OC4=O)cc3F)CC2)on1`, for which the “Log 1/MIC” value was -0.49 and the MIC came out at 3.12 µg/mL (≈ 6.97 µM).

Regarding `CC(=O)NC[C@H]1CN(c2ccc(N3CCN(Cc4cc(-c5ccc(Cl)cc5)no4)CC3)c(F)c2)C(=O)O1`, the “Log 1/MIC” value is given as -1.7 and the MIC turned out to be 50 µg/mL (≈ 94.7 µM).

On to `CC(=O)NC[C@H]1CN(c2ccc(N3CCN(C(=O)c4ccno4)CC3)c(F)c2)C(=O)O1`, for which the “Log 1/MIC” value is reported as -0.19 and the MIC was determined as 1.56 µg/mL (≈ 3.62 µM).

For the compound `CC(=O)NC[C@H]1CN(c2ccc(N3CCN(C(=O)c4nccs4)CC3)c(F)c2)C(=O)O1`, the “Log 1/MIC” value was -0.19 and it took 1.56 µg/mL (≈ 3.49 µM) to inhibit growth (MIC).

As to `CC(=O)NC[C@H]1CN(c2ccc(N3CCN(Cc4cc(/C=C/c5ccccc5)no4)CC3)c(F)c2)C(=O)O1`, the “Log 1/MIC” value is on record as -1.4 and the MIC turned out to be 25 µg/mL (≈ 48.1 µM).

Turning to `CC(=O)NC[C@H]1CN(c2ccc(N3CCN(C(=O)c4cc(C(=O)N(C)C)no4)CC3)c(F)c2)C(=O)O1`, the “Log 1/MIC” value is -0.49 and the MIC was 3.12 µg/mL (≈ 6.21 µM).

Consider `COc1cccc(-c2cc(CN3CCN(c4ccc(N5C[C@H](CNC(C)=O)OC5=O)cc4F)CC3)on2)c1`, for which the “Log 1/MIC” value was -0.49 and the lowest concentration to inhibit growth (MIC) was 3.12 µg/mL (≈ 5.96 µM).

`CC(=O)NC[C@H]1CN(c2ccc(N3CCN(Cc4cc(-c5ccc(C#N)cc5)no4)CC3)c(F)c2)C(=O)O1`: the “Log 1/MIC” value is -0.8 and the lowest concentration to inhibit growth (MIC) was 6.25 µg/mL (≈ 12.1 µM).

`CC(=O)NC[C@H]1CN(c2ccc(N3CCN(C(=O)c4cc(C(N)=O)no4)CC3)c(F)c2)C(=O)O1`: the “Log 1/MIC” value is -0.19 and the MIC was 1.56 µg/mL (≈ 3.29 µM).

Regarding `CC(=O)NC[C@H]1CN(c2ccc(N3CCN(C(=O)c4cc(-c5csnn5)no4)CC3)c(F)c2)C(=O)O1`, the “Log 1/MIC” value turned out to be 0.11 and inhibition of growth (MIC) required 0.78 µg/mL (≈ 1.51 µM).

In the case of `CC(=O)NC[C@H]1CN(c2ccc(N3CCN(C(=O)c4cc(C(F)(F)F)no4)CC3)c(F)c2)C(=O)O1`, the “Log 1/MIC” value was -0.49 and it took 3.12 µg/mL (≈ 6.25 µM) to inhibit growth (MIC).

Consider `CC(=O)NC[C@H]1CN(c2ccc(N3CCN(C(=O)c4cc(O)no4)CC3)c(F)c2)C(=O)O1`, for which the “Log 1/MIC” value is listed as -1.7 and 50 µg/mL (≈ 112 µM) was the least that counted as inhibitory (MIC).

On to `CC(=O)NC[C@H]1CN(c2ccc(N3CCN(Cc4cc(-c5ccc(Oc6ccccc6)cc5)no4)CC3)c(F)c2)C(=O)O1`, for which the “Log 1/MIC” value is on record as -2 and the MIC was 100 µg/mL (≈ 171 µM).

For the compound `CC(=O)NC[C@H]1CN(c2ccc(N3CCN(Cc4cc(-c5ccc(C)cc5)no4)CC3)c(F)c2)C(=O)O1`, the “Log 1/MIC” value was -1.1 and the MIC is 12.5 µg/mL (≈ 24.6 µM).

On to `CC(=O)NC[C@H]1CN(c2ccc(N3CCN(C(=O)c4cc(C(=O)O)no4)CC3)c(F)c2)C(=O)O1`, for which the “Log 1/MIC” value is on record as -2 and inhibition of growth (MIC) required 100 µg/mL (≈ 210 µM).

For `CC(=O)NC[C@H]1CN(c2ccc(N3CCN(C(=O)c4cc(-c5nccs5)no4)CC3)c(F)c2)C(=O)O1`, the “Log 1/MIC” value stood at 0.41 and inhibition of growth (MIC) required 0.39 µg/mL (≈ 0.758 µM).

Regarding `CC(=O)NC[C@H]1CN(c2ccc(N3CCN(Cc4cc(-c5ccc(F)cc5)no4)CC3)c(F)c2)C(=O)O1`, the “Log 1/MIC” value is reported as -0.49 and the MIC was 3.12 µg/mL (≈ 6.1 µM).

Turning to `CC(=O)NC[C@H]1CN(c2ccc(N3CCN(Cc4cc(-c5ccccn5)no4)CC3)c(F)c2)C(=O)O1`, the “Log 1/MIC” value is -0.19 and the MIC came out at 1.56 µg/mL (≈ 3.15 µM).

For `CC(=O)NC[C@H]1CN(c2ccc(N3CCN(C(=O)c4cc(C#N)no4)CC3)c(F)c2)C(=O)O1`, the “Log 1/MIC” value is listed as -0.19 and inhibition of growth (MIC) required 1.56 µg/mL (≈ 3.42 µM).
